Results as given in patent US6677277B1, “Substituted sulphonyl amino(thio)carbonyl compounds and their use as herbicides” (Bayer Aktiengesellschaft, priority 1996, dated 2004).

Columns and labels:
weeds [1] = assay: Pre-emergence test; type: in vivo; details: cf. Tables A-1 to A-5
Protocol: (§1) Pre-emergence Test Solvent: 5 parts by weight of acetone Emulsifier: 1 part by weight of alkylaryl polyglycol ether To produce a suitable preparation of active compound, 1 part by weight of active compound is mixed with the stated amount of solvent, the stated amount of emulsifier is added and the concentrate is diluted with water to the desired concentration. Seeds of the test plants are sown in normal soil. After about 24 hours, the soil is sprayed with the preparation of the active compound in such a way as to apply the particular amounts of active compound desired per unit area The concentration of the spray liquor is chosen so that the particular amounts of active compound desired are applied in 1000 l of water/ha. After three weeks, the degree of damage to the plants is rated in % damage in comparison to the development of the untreated control. The figures denote: [table]

weeds [2] = assay: Post-emergence test; type: in vivo; details: cf. Tables B-1 to B-4
Protocol: as §1, with “Post-emergence” for “Pre-emergence”, “Test plants which have a height” for “Seeds”, “5-15 cm” for “the test plants”, “are” for “are sown in normal soil. After about 24 hours, the soil is”, “area.” for “area”

Chenopodium = assay: Pre-emergence test/greenhouse; type: in vivo; details: after three weeks
Protocol: as §1

Amaranthus [3] = assay: Pre-emergence test/greenhouse; type: in vivo; details: after three weeks
Protocol: as §1

Soya beans = assay: Pre-emergence test/greenhouse; type: in vivo; details: 125 g ai./ha, after three weeks
Protocol: as §1

Alopecurus [4] = assay: Pre-emergence test/greenhouse; type: in vivo; details: after three weeks
Protocol: as §1

Sorghum [5] = assay: Pre-emergence test/greenhouse; type: in vivo; details: after three weeks
Protocol: as §1

Matricaria [6] = assay: Pre-emergence test/greenhouse; type: in vivo; details: after three weeks
Protocol: as §1

Lolium [7] = assay: Pre-emergence test/greenhouse; type: in vivo; details: after three weeks
Protocol: as §1

Maize = assay: Pre-emergence test/greenhouse; type: in vivo; details: after three weeks
Protocol: as §1

Solanum [8] = assay: Pre-emergence test/greenhouse; type: in vivo; details: after three weeks
Protocol: as §1

Wheat = assay: Post-emergence test/greenhouse; type: in vivo; details: for % damage, Wheat: after three weeks
Protocol: as §1, with “Post-emergence” for “Pre-emergence”, “Test plants which have a height” for “Seeds”, “5-15 cm” for “the test plants”, “are” for “are sown in normal soil. After about 24 hours, the soil is”, “area.” for “area”

Xanthium = assay: Post-emergence test/greenhouse; type: in vivo; details: post-emergence; for % damage, Xanthium: after three weeks
Protocol: as §1, with “Post-emergence” for “Pre-emergence”, “Test plants which have a height” for “Seeds”, “5-15 cm” for “the test plants”, “are” for “are sown in normal soil. After about 24 hours, the soil is”, “area.” for “area”

Ipomoea = assay: Post-emergence test/greenhouse; type: in vivo; details: for % damage, Ipomoea: after three weeks
Protocol: as §1, with “Post-emergence” for “Pre-emergence”, “Test plants which have a height” for “Seeds”, “5-15 cm” for “the test plants”, “are” for “are sown in normal soil. After about 24 hours, the soil is”, “area.” for “area”

Sorghum [9] = assay: Post-emergence test/greenhouse; type: in vivo; details: post-emergence; for % damage, Sorghum: after three weeks
Protocol: as §1, with “Post-emergence” for “Pre-emergence”, “Test plants which have a height” for “Seeds”, “5-15 cm” for “the test plants”, “are” for “are sown in normal soil. After about 24 hours, the soil is”, “area.” for “area”

Stellaria = assay: Post-emergence test/greenhouse; type: in vivo; details: for % damage, Stellaria: after three weeks
Protocol: as §1, with “Post-emergence” for “Pre-emergence”, “Test plants which have a height” for “Seeds”, “5-15 cm” for “the test plants”, “are” for “are sown in normal soil. After about 24 hours, the soil is”, “area.” for “area”

Solanum [10] = assay: Post-emergence test/greenhouse; type: in vivo; details: post-emergence; for % damage, Solanum: after three weeks
Protocol: as §1, with “Post-emergence” for “Pre-emergence”, “Test plants which have a height” for “Seeds”, “5-15 cm” for “the test plants”, “are” for “are sown in normal soil. After about 24 hours, the soil is”, “area.” for “area”

Amaranthus [11] = assay: Post-emergence test/greenhouse; type: in vivo; details: post-emergence, 125 g ai./ha, after three weeks
Protocol: as §1, with “Post-emergence” for “Pre-emergence”, “Test plants which have a height” for “Seeds”, “5-15 cm” for “the test plants”, “are” for “are sown in normal soil. After about 24 hours, the soil is”, “area.” for “area”

Matricaria [12] = assay: Post-emergence test/greenhouse; type: in vivo; details: 125 g ai./ha, after three weeks
Protocol: as §1, with “Post-emergence” for “Pre-emergence”, “Test plants which have a height” for “Seeds”, “5-15 cm” for “the test plants”, “are” for “are sown in normal soil. After about 24 hours, the soil is”, “area.” for “area”

Alopecurus [13] = assay: Post-emergence test/greenhouse; type: in vivo; details: after three weeks
Protocol: as §1, with “Post-emergence” for “Pre-emergence”, “Test plants which have a height” for “Seeds”, “5-15 cm” for “the test plants”, “are” for “are sown in normal soil. After about 24 hours, the soil is”, “area.” for “area”

Lolium [14] = assay: Post-emergence test/greenhouse; type: in vivo; details: after three weeks
Protocol: as §1, with “Post-emergence” for “Pre-emergence”, “Test plants which have a height” for “Seeds”, “5-15 cm” for “the test plants”, “are” for “are sown in normal soil. After about 24 hours, the soil is”, “area.” for “area”

[15] = log P n-octanol/water by the HPLC method; type: physicochemical; details: at pH 2, eluent acetonitrile containing 1% of H3PO4
[16] = 60 g ai./ha, rated after three weeks vs untreated control

Row | Compound | activity against weeds (weeds [1]) | activity against weeds (weeds [2]) | % damage, Chenopodium (Chenopodium; 125 g ai./ha) [%] | % damage, Amaranthus (Amaranthus [3]; 125 g ai./ha) [%] | % damage, Alopecurus (Alopecurus [4]; 125 g ai./ha) [%] | % damage, Sorghum (Sorghum [5]; 125 g ai./ha) [%] | % damage, Matricaria (Matricaria [6]; 125 g ai./ha) [%] | % damage, Lolium (Lolium [7]; 125 g ai./ha) [%] | % damage, Maize (Maize; 125 g ai./ha) [%] | % damage, Solanum (Solanum [8]; 125 g ai./ha) [%] | % damage, Wheat (Wheat; 60 g ai./ha) [%] | % damage, Alopecurus (Alopecurus [13]; 60 g ai./ha) [%] | % damage, Ipomoea (Ipomoea; 60 g ai./ha) [%] | % damage, Sorghum (Sorghum [9]; 60 g ai./ha) [%] | % damage, Stellaria (Stellaria; 60 g ai./ha) [%] | % damage, Lolium (Lolium [14]; 60 g ai./ha) [%] | % damage, Solanum (Solanum [10]; 60 g ai./ha) [%] | also measured
1 | CCSc1cccc(OC(F)(F)F)c1S(=O)(=O)NC(=O)n1nc(OC)n(C)c1=O [Example 40] | very strong activity | very strong activity | 100 | 100 | 100 | 100 | 100 | 95 | 5 | 100 |  |  |  |  |  |  |  | % damage, Soya beans (Soya beans): 20%; Wheat, % damage (Wheat; [16]): 20%; Xanthium, % damage (Xanthium; [16]): 100%; Ipomoea, % damage (Ipomoea; [16]): 90%; Sorghum, % damage (Sorghum [9]; [16]): 80%; Stellaria, % damage (Stellaria; [16]): 95%; Solanum, % damage (Solanum [10]; [16]): 95%
2 | CCOc1nn(C(=O)NS(=O)(=O)c2c(C)cccc2SCC)c(=O)n1C [Example 56] |  | very strong activity |  |  |  |  |  |  |  |  |  |  |  |  |  |  |  | % damage, Wheat (Wheat; 125 g ai./ha): 10%; % damage, Xanthium (Xanthium; 125 g ai./ha): 100%; % damage, Amaranthus (Amaranthus [11]): 100%; % damage, Matricaria (Matricaria [12]): 100%; % damage, Solanum (Solanum [10]; 125 g ai./ha): 100%
3 | CCSc1cccc(OC)c1S(=O)(=O)NC(=O)n1nc(OC)n(C)c1=O [Example 30] | very strong activity | very strong activity |  |  |  |  |  |  |  |  |  |  |  |  |  |  |  | % damage, Chenopodium (Chenopodium; 60 g ai./ha): 90%; % damage, Amaranthus (Amaranthus [3]; 60 g ai./ha): 95%; % damage, Alopecurus (Alopecurus [4]; 60 g ai./ha): 100%; % damage, Sorghum (Sorghum [5]; 60 g ai./ha): 95%; % damage, Matricaria (Matricaria [6]; 60 g ai./ha): 95%; % damage, Lolium (Lolium [7]; 60 g ai./ha): 100%; % damage, Maize (Maize; 60 g ai./ha): 0%; % damage, Solanum (Solanum [8]; 60 g ai./ha): 95%; % damage, Xanthium (Xanthium; 125 g ai./ha): 100%; % damage, Alopecurus (Alopecurus [13]; 125 g ai./ha): 95%; % damage, Ipomoea (Ipomoea; 125 g ai./ha): 90%; % damage, Sorghum (Sorghum [9]; 125 g ai./ha): 100%; % damage, Stellaria (Stellaria; 125 g ai./ha): 100%; % damage, Lolium (Lolium [14]; 125 g ai./ha): 90%; % damage, Solanum (Solanum [10]; 125 g ai./ha): 100%
4 | CCOc1nn(C(=O)NS(=O)(=O)c2c(OC(F)(F)F)cccc2SCC)c(=O)n1C [Example 6] | very strong activity | very strong activity | 100 | 100 | 100 | 80 | 100 | 100 | 0 | 100 | 5 | 60 | 90 | 70 | 95 | 50 | 95 | % damage, Xanthium (Xanthium; 60 g ai./ha): 95%
5 | CCOc1nn(C(=O)NS(=O)(=O)c2c(OC)cccc2SCC)c(=O)n1C [Example 7] | very strong activity | very strong activity | 100 | 100 | 100 | 90 | 70 | 100 | 0 | 100 | 10 | 95 | 95 | 95 | 100 | 95 | 95 | 
6 | COc1nn(C(=O)NS(=O)(=O)c2c(SCC(F)F)cccc2C(F)(F)F)c(=O)n1C [Example 99] |  |  |  |  |  |  |  |  |  |  |  |  |  |  |  |  |  | log P [15]: (log P = 2.59)
7 | CCOc1nn(C(=O)NS(=O)(=O)c2c(OC)cccc2SC)c(=O)n1C [Example 20] | very strong activity | very strong activity |  |  |  |  |  |  |  |  | 20 | 95 | 95 | 100 | 100 | 90 | 100 | % damage, Chenopodium (Chenopodium; 60 g ai./ha): 100%; % damage, Amaranthus (Amaranthus [3]; 60 g ai./ha): 100%; % damage, Alopecurus (Alopecurus [4]; 60 g ai./ha): 100%; % damage, Sorghum (Sorghum [5]; 60 g ai./ha): 100%; % damage, Matricaria (Matricaria [6]; 60 g ai./ha): 100%; % damage, Lolium (Lolium [7]; 60 g ai./ha): 95%; % damage, Maize (Maize; 60 g ai./ha): 0%; % damage, Solanum (Solanum [8]; 60 g ai./ha): 100%; % damage, Xanthium (Xanthium; 60 g ai./ha): 95%
